Results published in publication PMC11079024, “Identification of a family of species-selective complex I inhibitors as potential anthelmintics” (Nature Communications, 2024).
Values joined by “and” are separate entries in the source; they are usually repeats but may differ in a detail not shown here. Equal values may be shown once. Read-outs that look alike come from different tables or passages of the source.

Tests used:
HEK293 cells = conditions: HEK293 cells
[1] = target: M. musculus (heart) complex I (Mus musculus, UniProt P03888+Q91WD5+Q9DC70); assay: biochemical; type: biochemical; set-up: Complex I activity, dose-response data: unit not given here
Sequence of M. musculus (heart) complex I (Q91WD5 34-463): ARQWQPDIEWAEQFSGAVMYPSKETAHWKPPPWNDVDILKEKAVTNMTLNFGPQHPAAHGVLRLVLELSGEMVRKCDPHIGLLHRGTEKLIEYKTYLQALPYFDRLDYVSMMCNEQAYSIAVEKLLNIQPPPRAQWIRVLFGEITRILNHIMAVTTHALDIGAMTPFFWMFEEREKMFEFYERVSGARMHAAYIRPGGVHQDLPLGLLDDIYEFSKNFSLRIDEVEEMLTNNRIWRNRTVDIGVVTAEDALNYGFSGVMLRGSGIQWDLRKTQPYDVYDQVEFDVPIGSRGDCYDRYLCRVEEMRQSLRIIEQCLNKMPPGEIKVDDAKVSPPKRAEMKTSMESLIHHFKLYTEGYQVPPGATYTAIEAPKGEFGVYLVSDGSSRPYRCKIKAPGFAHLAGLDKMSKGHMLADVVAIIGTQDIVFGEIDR
Sequence of M. musculus (heart) complex I (Q9DC70 36-224): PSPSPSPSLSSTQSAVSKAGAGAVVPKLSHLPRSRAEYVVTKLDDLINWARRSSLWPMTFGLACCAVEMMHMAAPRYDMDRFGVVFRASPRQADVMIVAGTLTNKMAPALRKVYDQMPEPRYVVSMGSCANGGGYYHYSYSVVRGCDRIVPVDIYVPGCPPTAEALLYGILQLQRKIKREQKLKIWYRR
Sequence of M. musculus (heart) complex I (P03888 whole entry): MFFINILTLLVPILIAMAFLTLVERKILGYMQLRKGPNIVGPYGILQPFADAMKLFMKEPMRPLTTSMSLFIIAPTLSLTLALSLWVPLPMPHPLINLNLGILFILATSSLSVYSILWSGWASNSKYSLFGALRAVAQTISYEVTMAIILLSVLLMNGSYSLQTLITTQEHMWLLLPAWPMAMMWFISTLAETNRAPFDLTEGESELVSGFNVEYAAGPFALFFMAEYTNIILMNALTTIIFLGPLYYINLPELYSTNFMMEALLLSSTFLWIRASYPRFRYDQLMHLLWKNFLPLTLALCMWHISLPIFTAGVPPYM
Description: Six 8–10-week-old C57Bl/6 female mice (Charles River) were freshly dissected, and their livers and hearts collected into separate 1.5 mL microcentrifuge tubes. Organs were flash-frozen in liquid nitrogen and stored at −80 °C prior to use. The heart of a freshly slaughtered adult cow was obtained from a local abattoir (Peel Sausage Inc.), chopped into ~1-inch cubes and collected into 50 mL falcon tubes. Falcon tubes were flash-frozen in a container of dry ice and stored at −80 °C prior to use. Isolation of mitochondria from all mammalian tissue was carried out following the protocol described above. However, due to size, the initial homogenization of tissue was performed by 15 strokes in a dounce homogenizer (mouse heart) or with several 5 s pulses in small Nutribullet blender (cow heart). All mouse protocols for mouse care and dissection were reviewed and approved by the University of Toronto Animal Care Committee, in accordance with the Canadian Council on Animal Care.
The enzymatic activities of individual ETC complexes (I-IV) were assessed spectrophotometrically in isolated mitochondria using a Varioskan LUX Multimode plate reader (ThermoFisher Scientific). Mitochondrial pellets previously isolated were thawed on ice and resuspended in ice-cold isolation buffer (250 mM sucrose, 10 mM Tris (pH 7.5), 1 mM EDTA). The BCA assay (Walker, 1994) was used to quantify the protein concentration of mitochondria suspensions; solutions were diluted to a concentration of 0.2 mg/mL for use in all assays. For the complex I assay, mitochondria pellets were freeze-thawed on ice three times to increase enzyme accessibility. […] 20 μL mitochondria suspension was then added/mixed with a pipette to initiate the reaction. Immediately following the addition of mitochondria, absorbance was measured (complex I and II: 600 nm; complex III and IV: 550 nm) in 30 s intervals over 15 min. Enzymatic activity was determined in each reaction by plotting absorbance versus time and calculating the slope of the curve during the initial linear phase of the reaction. […] Percent activity of each complex was calculated by dividing the enzyme-specific activity of each well by the enzyme-specific activity of the corresponding solvent controls.
Chemical solutions were prepared in complex I assay buffer composed of 25 mM KPi buffer (pH 7.5), 3 mg/mL bovine serum albumin (BSA), 80 μM NADH, 60 μM decylubiquinone, 160 μM DCIP, 2 μM antimycin A and 2 mM KCN.
For preliminary screens of hit compounds, compounds were screened at 100 μM; data are the average of at least three biological replicates. The complex I and II activity assays were used for additional dose-response experiments. […] For dose responses of benzimidazole analogs, data represent the average of two biological replicates. For all other dose-responses, data represent the average of at least three biological replicates.

[2] = M. musculus (heart) mitochondria, mean of replicates, read-out: percent (%) in vitro complex I activity relative to solvent control
[3] = M. musculus (heart) mitochondria, single replicate, read-out: percent (%) in vitro complex I activity relative to solvent control
[4] = M. musculus (heart) mitochondria, Mean of replicates, read-out: in vitro complex I activity relative to solvent control
[5] = M. musculus (heart) mitochondria, single replicate, read-out: in vitro complex I activity relative to solvent control

CC(C)Cc1ccc(C(C)c2nc3ccccc3n2C)cc1 (stereo not drawn) [NPD8790]
toxicity against mammalian cells (HEK293 cells): low toxicity
remaining activity at 0.125 µM [1, 2]: 101%
remaining activity at 0.125 µM [1, 3]: 99.7%
remaining activity at 0.313 µM [1, 2]: 97.5%
remaining activity at 0.313 µM [1, 3]: 97.7%
remaining activity at 0.625 µM [1, 2]: 100%
remaining activity at 0.625 µM [1, 3]: 100%
remaining activity at 1.5 µM [1, 2]: 100%
remaining activity at 1.5 µM [1, 3]: 100%
remaining activity at 3 µM [1, 2]: 99.1%
remaining activity at 3 µM [1, 3]: 100%
remaining activity at 15 µM [1, 2]: 78.9%
remaining activity at 15 µM [1, 3]: 77.5%
remaining activity at 37.5 µM [1, 2]: 44.3%
remaining activity at 37.5 µM [1, 3]: 40.4%
remaining activity at 75 µM [1, 2]: 24.7%
remaining activity at 75 µM [1, 3]: 18%
remaining activity at 0.06 µM ([1]; M. musculus (heart) mitochondria, 0.06 µM, Mean of replicates, read-out: in vitro complex I activity relative to solvent control): 103%
remaining activity at 0.13 µM [1, 4]: 101%
remaining activity at 0.13 µM [1, 5]: 99.7%
remaining activity at 0.313 µM [1, 4]: 97.5%
remaining activity at 0.313 µM [1, 5]: 97.7%
remaining activity at 0.625 µM [1, 4]: 100%
remaining activity at 0.625 µM [1, 5]: 100%
remaining activity at 1.5 µM [1, 4]: 100%
remaining activity at 1.5 µM [1, 5]: 100%
remaining activity at 3 µM [1, 4]: 99.1%
remaining activity at 3 µM [1, 5]: 100%
remaining activity at 15 µM [1, 4]: 78.9%
remaining activity at 15 µM [1, 5]: 77.5%
remaining activity at 37.5 µM [1, 4]: 44.3%
remaining activity at 37.5 µM [1, 5]: 40.4%
remaining activity at 75 µM [1, 4]: 24.7%
remaining activity at 75 µM [1, 5]: 18%
activity at 0.0001 µM ([1]; M. musculus, Mean of replicates, read-out: Complex I activity, dose-response data): 100%
activity at 0.0001 µM ([1]; M. musculus, individual replicates (Rep), read-out: Complex I activity, dose-response data): 100%
activity at 0.0005 µM ([1]; M. musculus, dose 0.0005 µM, Mean of replicates, read-out: Complex I activity, dose-response data): 103%
Complex I activity, dose-response data ([1]; M. musculus, dose 0.0005 µM, individual replicates (Rep)): 104.677 and 101.090 and 100.240
activity at 0.0005 µM ([1]; M. musculus, dose 0.0005 µM, individual replicates (Rep), read-out: Complex I activity, dose-response data): 105%
activity at 0.001 µM ([1]; M. musculus, dose 0.001 µM, Mean of replicates, read-out: Complex I activity, dose-response data): 103%
Complex I activity, dose-response data ([1]; M. musculus, dose 0.001 µM, individual replicates (Rep)): 105.312 and 100.449 and 100.153
activity at 0.001 µM ([1]; M. musculus, dose 0.001 µM, individual replicates (Rep), read-out: Complex I activity, dose-response data): 106%
activity at 0.0025 µM ([1]; M. musculus, dose 0.0025 µM, Mean of replicates, read-out: Complex I activity, dose-response data): 104%
Complex I activity, dose-response data ([1]; M. musculus, dose 0.0025 µM, individual replicates (Rep)): 112.270 and 101.643 and 99.207
activity at 0.0025 µM ([1]; M. musculus, dose 0.0025 µM, individual replicates (Rep), read-out: Complex I activity, dose-response data): 103%
activity at 0.005 µM ([1]; M. musculus, dose 0.005 µM, Mean of replicates, read-out: Complex I activity, dose-response data): 104%
Complex I activity, dose-response data ([1]; M. musculus, dose 0.005 µM, individual replicates (Rep)): 110.480 and 103.776 and 102.056
activity at 0.005 µM ([1]; M. musculus, dose 0.005 µM, individual replicates (Rep), read-out: Complex I activity, dose-response data): 101%
activity at 0.013 µM ([1]; M. musculus, dose 0.013 µM, Mean of replicates, read-out: Complex I activity, dose-response data): 104%
Complex I activity, dose-response data ([1]; M. musculus, dose 0.013 µM, individual replicates (Rep)): 111.361 and 104.185 and 100.073
activity at 0.013 µM ([1]; M. musculus, dose 0.013 µM, individual replicates (Rep), read-out: Complex I activity, dose-response data): 99.2%
activity at 0.025 µM ([1]; M. musculus, dose 0.025 µM, Mean of replicates, read-out: Complex I activity, dose-response data): 106%
Complex I activity, dose-response data ([1]; M. musculus, dose 0.025 µM, individual replicates (Rep)): 117.035 and 103.670 and 100.685
activity at 0.025 µM ([1]; M. musculus, dose 0.025 µM, individual replicates (Rep), read-out: Complex I activity, dose-response data): 102%
activity at 0.063 µM ([1]; M. musculus, dose 0.063 µM, Mean of replicates, read-out: Complex I activity, dose-response data): 103%
Complex I activity, dose-response data ([1]; M. musculus, dose 0.063 µM, individual replicates (Rep)): 102.752 and 117.261 and 99.301 and 94.461
activity at 0.125 µM ([1]; M. musculus, dose 0.125 µM, Mean of replicates, read-out: Complex I activity, dose-response data): 101%
Complex I activity, dose-response data ([1]; M. musculus, dose 0.125 µM, individual replicates (Rep)): 109.547 and 101.293 and 94.390
activity at 0.125 µM ([1]; M. musculus, dose 0.125 µM, individual replicates (Rep), read-out: Complex I activity, dose-response data): 99.7%
Complex I activity, dose-response data ([1]; M. musculus, dose 0.313 µM, individual replicates (Rep)): 201.293 and 194.390
activity at 0.313 µM ([1]; M. musculus, dose 0.313 µM, individual replicates (Rep), read-out: Complex I activity, dose-response data): 210%
Complex I activity, dose-response data ([1]; M. musculus, dose 0.625 µM, individual replicates (Rep)): 301.293 and 294.390
activity at 0.625 µM ([1]; M. musculus, dose 0.625 µM, individual replicates (Rep), read-out: Complex I activity, dose-response data): 310%
Complex I activity, dose-response data ([1]; M. musculus, dose 1.5 µM, individual replicates (Rep)): 401.293 and 394.390
activity at 1.5 µM ([1]; M. musculus, dose 1.5 µM, individual replicates (Rep), read-out: Complex I activity, dose-response data): 410%
activity at 3 µM ([1]; M. musculus, dose 3 µM, Mean of replicates, read-out: Complex I activity, dose-response data): 99.1%
Complex I activity, dose-response data ([1]; M. musculus, dose 3 µM, individual replicates (Rep)): 102.668 and 98.080 and 95.248
activity at 3 µM ([1]; M. musculus, dose 3 µM, individual replicates (Rep), read-out: Complex I activity, dose-response data): 100%
activity at 15 µM ([1]; M. musculus, dose 15 µM, Mean of replicates, read-out: Complex I activity, dose-response data): 78.9%
Complex I activity, dose-response data ([1]; M. musculus, dose 15 µM, individual replicates (Rep)): 87.100 and 75.283 and 75.658
activity at 15 µM ([1]; M. musculus, dose 15 µM, individual replicates (Rep), read-out: Complex I activity, dose-response data): 77.5%
activity at 37.5 µM ([1]; M. musculus, dose 37.5 µM, Mean of replicates, read-out: Complex I activity, dose-response data): 44.3%
Complex I activity, dose-response data ([1]; M. musculus, dose 37.5 µM, individual replicates (Rep)): 50.337 and 43.421 and 43.042
activity at 37.5 µM ([1]; M. musculus, dose 37.5 µM, individual replicates (Rep), read-out: Complex I activity, dose-response data): 40.4%
activity at 75 µM ([1]; M. musculus, dose 75 µM, Mean of replicates, read-out: Complex I activity, dose-response data): 24.7%
Complex I activity, dose-response data ([1]; M. musculus, dose 75 µM, individual replicates (Rep)): 29.417 and 25.967 and 25.618
activity at 75 µM ([1]; M. musculus, dose 75 µM, individual replicates (Rep), read-out: Complex I activity, dose-response data): 18%
IC50 ([1]; heart mitochondria): 28.8 µM and 28.9 µM
